# Data taken from patent US10336792B2, “Antimicrobial peptide dendrimers” (priority 2014, dated 2019).
# Positions of bridges follow the written chain, without caps; N, C: chain ends. Non-standard residues stand in square brackets, D forms with d. Residues, ends and D or L forms follow the SMILES beside them. Groups on a side chain read outwards from the residue. Chains are numbered I, II in the order given. *: point of attachment. X1 = CCCCCCCCCCCCCCCCCCCCCCCC(=O)*; Dab = NCC[C@H](N)C(=O)O; Dap = NC[C@H](N)C(=O)O; Hexanoyl = CCCCCC(=O)*
# How the values were obtained:
# Format in all cases: cell-based
# [1] = tested on: Pseudomonas aeruginosa (strain PA01); test: microbe, parasite or virus in culture; conditions: strain
# Outline: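 P. aeruginosa PAO1 grown overnight in LB, diluted to OD600 0.001 and mixed with ⅔-step peptide dilutions, then incubated at 37 °C for 18–24 h. After MTT staining, the lowest concentration with no visible growth was read by eye as the MIC.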
# [2] = tested on: Bacillus subtilis (strain BR151); conditions: strain BR151
# Outline: (§1)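 Broth microdilution MIC in LB; overnight cultures diluted to OD600 0.001 and mixed 1:1 with ⅔-serially diluted samples (stock 1 mg mL^−1 in H2O), 37° C for 18-24 h. MTT (0.1%) added; MIC read by eye as lowest concentration inhibiting visible growth (yellow).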
# [3] = tested on: Escherichia coli (strain DH5α); conditions: DH5α
# Outline: as §1
MIC P. aeruginosa PAO1 [1],MIC B. subtilis BR151 [2],MIC E. coli DH5α [3],Compound
3 µg/mL,2 µg/mL,2 µg/mL,"CC(C)C[C@H](NC(=O)[C@@H](N)CCN)C(=O)NCCCC[C@H](NC(=O)[C@H](CC(C)C)NC(=O)[C@@H](N)CCN)C(=O)N[C@@H](CCN)C(=O)N[C@@H](Cc1c[nH]c2ccccc12)C(=O)NCCCC[C@H](NC(=O)[C@H](Cc1c[nH]c2ccccc12)NC(=O)[C@H](CCN)NC(=O)[C@H](CCCCNC(=O)[C@H](CC(C)C)NC(=O)[C@@H](N)CCN)NC(=O)[C@H](CC(C)C)NC(=O)[C@@H](N)CCN)C(=O)N[C@@H](CCN)C(=O)N[C@@H](Cc1c[nH]c2ccccc12)C(=O)NCCCC[C@H](NC(=O)[C@H](Cc1c[nH]c2ccccc12)NC(=O)[C@H](CCN)NC(=O)[C@H](CCCCNC(=O)[C@H](Cc1c[nH]c2ccccc12)NC(=O)[C@H](CCN)NC(=O)[C@H](CCCCNC(=O)[C@H](CC(C)C)NC(=O)[C@@H](N)CCN)NC(=O)[C@H](CC(C)C)NC(=O)[C@@H](N)CCN)NC(=O)[C@H](Cc1c[nH]c2ccccc12)NC(=O)[C@H](CCN)NC(=O)[C@H](CCCCNC(=O)[C@H](CC(C)C)NC(=O)[C@@H](N)CCN)NC(=O)[C@H](CC(C)C)NC(=O)[C@@H](N)CCN)C(=O)N[C@@H](CCN)C(=O)N[C@@H](C)C(N)=O [MSt-205, (DabL)8(KDabW)4(KDabW)2(KDabA)] (I: H-[Dab]LK([Leu-Dab])[Dab]WK[Dab]WK[Dab]A-NH2 / II: H-[Dab]LK([Leu-Dab])[Dab]WK[Dab]W / III: H-[Dab]LK([Leu-Dab])[Dab]W / IV: H-[Dab]LK([Leu-Dab])[Dab]W; amide I:6-IV:C, I:9-II:C, II:6-III:C; N-terminus assumed)"
11 µg/mL,6 µg/mL,4 µg/mL,"CC(C)C[C@@H](NC(=O)[C@@H](CCCNC(=N)N)NC(=O)[C@@H](CCCCNC(=O)[C@@H](CC(C)C)NC(=O)[C@@H](CCCNC(=N)N)NC(=O)[C@@H](CCCCNC(=O)[C@@H](CC(C)C)NC(=O)[C@@H](CCCNC(=N)N)NC(=O)[C@@H](CCCCNC(=O)[C@@H](CC(C)C)NC(=O)[C@H](N)CCCNC(=N)N)NC(=O)[C@@H](CC(C)C)NC(=O)[C@H](N)CCCNC(=N)N)NC(=O)[C@@H](CC(C)C)NC(=O)[C@@H](CCCNC(=N)N)NC(=O)[C@@H](CCCCNC(=O)[C@@H](CC(C)C)NC(=O)[C@H](N)CCCNC(=N)N)NC(=O)[C@@H](CC(C)C)NC(=O)[C@H](N)CCCNC(=N)N)NC(=O)[C@@H](CC(C)C)NC(=O)[C@@H](CCCNC(=N)N)NC(=O)[C@@H](CCCCNC(=O)[C@@H](CC(C)C)NC(=O)[C@@H](CCCNC(=N)N)NC(=O)[C@@H](CCCCNC(=O)[C@@H](CC(C)C)NC(=O)[C@H](N)CCCNC(=N)N)NC(=O)[C@@H](CC(C)C)NC(=O)[C@H](N)CCCNC(=N)N)NC(=O)[C@@H](CC(C)C)NC(=O)[C@@H](CCCNC(=N)N)NC(=O)[C@@H](CCCCNC(=O)[C@@H](CC(C)C)NC(=O)[C@H](N)CCCNC(=N)N)NC(=O)[C@@H](CC(C)C)NC(=O)[C@H](N)CCCNC(=N)N)C(N)=O [MSt-155, (rl)8(krl)4(krl)2(krl)] (I: H-[dR][dL][dK]([dL-dR])[dR][dL][dK][dR][dL][dK][dR][dL]-NH2 / II: H-[dR][dL][dK]([dL-dR])[dR][dL][dK][dR][dL] / III: H-[dR][dL][dK]([dL-dR])[dR][dL] / IV: H-[dR][dL][dK]([dL-dR])[dR][dL]; amide I:6-IV:C, I:9-II:C, II:6-III:C)"
2 µg/mL,16 µg/mL,17 µg/mL,"CC(C)C[C@H](NC(=O)[C@H](CCCNC(=N)N)NC(=O)[C@H](CNC(=O)[C@H](CC(C)C)NC(=O)[C@H](CCCNC(=N)N)NC(=O)[C@H](CNC(=O)[C@H](CC(C)C)NC(=O)[C@@H](N)CCCNC(=N)N)NC(=O)[C@H](CC(C)C)NC(=O)[C@@H](N)CCCNC(=N)N)NC(=O)[C@H](CC(C)C)NC(=O)[C@H](CCCNC(=N)N)NC(=O)[C@H](CNC(=O)[C@H](CC(C)C)NC(=O)[C@@H](N)CCCNC(=N)N)NC(=O)[C@H](CC(C)C)NC(=O)[C@@H](N)CCCNC(=N)N)C(N)=O [MSt-139, (RL)4(BRL)2(BRL)] (I: H-RL[Dap]([Leu-Arg])RL[Dap]RL-NH2 / II: H-RL[Dap]([Leu-Arg])RL; amide I:6-II:C)"
1 µg/mL,20 µg/mL,2 µg/mL,"CCCCCC(=O)NCCCC[C@H](NC(=O)[C@H](CC(C)C)NC(=O)[C@H](CCCCN)NC(=O)[C@H](CCCCNC(=O)[C@H](CC(C)C)NC(=O)[C@H](CCCCN)NC(=O)[C@H](CCCCNC(=O)[C@H](CC(C)C)NC(=O)[C@@H](N)CCCCN)NC(=O)[C@H](CC(C)C)NC(=O)[C@@H](N)CCCCN)NC(=O)[C@H](CC(C)C)NC(=O)[C@H](CCCCN)NC(=O)[C@H](CCCCNC(=O)[C@H](CC(C)C)NC(=O)[C@@H](N)CCCCN)NC(=O)[C@H](CC(C)C)NC(=O)[C@@H](N)CCCCN)C(N)=O [MSt-260, (KL)4(KKL)2(KKLKC6)] (I: H-KLK([Leu-Lys])KLKKLK(Hexanoyl)-NH2 / II: H-KLK([Leu-Lys])KL; amide I:6-II:C)"
12 µg/mL,16 µg/mL,5 µg/mL,"CCCCCCCCCCCCCCCCCCCCCCCC(=O)NCCCC[C@H](NC(=O)[C@H](CC(C)C)NC(=O)[C@H](CCCCN)NC(=O)[C@H](CCCCNC(=O)[C@H](CC(C)C)NC(=O)[C@H](CCCCN)NC(=O)[C@H](CCCCNC(=O)[C@H](CC(C)C)NC(=O)[C@H](CCCCN)NC(=O)[C@H](CCCCNC(=O)[C@H](CC(C)C)NC(=O)[C@@H](N)CCCCN)NC(=O)[C@H](CC(C)C)NC(=O)[C@@H](N)CCCCN)NC(=O)[C@H](CC(C)C)NC(=O)[C@H](CCCCN)NC(=O)[C@H](CCCCNC(=O)[C@H](CC(C)C)NC(=O)[C@@H](N)CCCCN)NC(=O)[C@H](CC(C)C)NC(=O)[C@@H](N)CCCCN)NC(=O)[C@H](CC(C)C)NC(=O)[C@H](CCCCN)NC(=O)[C@H](CCCCNC(=O)[C@H](CC(C)C)NC(=O)[C@H](CCCCN)NC(=O)[C@H](CCCCNC(=O)[C@H](CC(C)C)NC(=O)[C@@H](N)CCCCN)NC(=O)[C@H](CC(C)C)NC(=O)[C@@H](N)CCCCN)NC(=O)[C@H](CC(C)C)NC(=O)[C@H](CCCCN)NC(=O)[C@H](CCCCNC(=O)[C@H](CC(C)C)NC(=O)[C@@H](N)CCCCN)NC(=O)[C@H](CC(C)C)NC(=O)[C@@H](N)CCCCN)C(N)=O [MSt-285, (KL)8(KKL)4(KKL)2(KKLKC24)] (I: H-KLK([Leu-Lys])KLKKLKKLK(X1)-NH2 / II: H-KLK([Leu-Lys])KLKKL / III: H-KLK([Leu-Lys])KL / IV: H-KLK([Leu-Lys])KL; amide I:6-IV:C, I:9-II:C, II:6-III:C)"
2 µg/mL,1 µg/mL,5 µg/mL,"CCCCCC(=O)N[C@@H](CCCCN)C(=O)N[C@@H](CC(C)C)C(=O)NCCCC[C@H](NC(=O)[C@H](CC(C)C)NC(=O)[C@H](CCCCN)NC(=O)CCCCC)C(=O)N[C@@H](CCCCN)C(=O)N[C@@H](CC(C)C)C(=O)NCCCC[C@H](NC(=O)[C@H](CC(C)C)NC(=O)[C@H](CCCCN)NC(=O)[C@H](CCCCNC(=O)[C@H](CC(C)C)NC(=O)[C@H](CCCCN)NC(=O)CCCCC)NC(=O)[C@H](CC(C)C)NC(=O)[C@H](CCCCN)NC(=O)CCCCC)C(=O)N[C@@H](CCCCN)C(=O)N[C@@H](CC(C)C)C(=O)NCCCC[C@H](NC(=O)[C@H](CC(C)C)NC(=O)[C@H](CCCCN)NC(=O)[C@H](CCCCNC(=O)[C@H](CC(C)C)NC(=O)[C@H](CCCCN)NC(=O)[C@H](CCCCNC(=O)[C@H](CC(C)C)NC(=O)[C@H](CCCCN)NC(=O)CCCCC)NC(=O)[C@H](CC(C)C)NC(=O)[C@H](CCCCN)NC(=O)CCCCC)NC(=O)[C@H](CC(C)C)NC(=O)[C@H](CCCCN)NC(=O)[C@H](CCCCNC(=O)[C@H](CC(C)C)NC(=O)[C@H](CCCCN)NC(=O)CCCCC)NC(=O)[C@H](CC(C)C)NC(=O)[C@H](CCCCN)NC(=O)CCCCC)C(=O)N[C@@H](CCCCN)C(=O)N[C@@H](CC(C)C)C(N)=O [MSt-288, (C6KL)8(KKL)4(KKL)2(KKL)] (I: Hexanoyl-KLK([Leu-Lys-Hexanoyl])KLKKLKKL-NH2 / II: Hexanoyl-KLK([Leu-Lys-Hexanoyl])KLKKL / III: Hexanoyl-KLK([Leu-Lys-Hexanoyl])KL / IV: Hexanoyl-KLK([Leu-Lys-Hexanoyl])KL; amide I:6-IV:C, I:9-II:C, II:6-III:C)"
12 µg/mL,6 µg/mL,7 µg/mL,"NCCCC[C@H](NC(=O)[C@H](CCCCNC(=O)[C@H](Cc1c[nH]c2ccccc12)NC(=O)[C@H](CCCCN)NC(=O)[C@H](CCCCNC(=O)[C@H](Cc1c[nH]c2ccccc12)NC(=O)[C@H](CCCCN)NC(=O)[C@H](CCCCNC(=O)[C@H](Cc1c[nH]c2ccccc12)NC(=O)[C@@H](N)CCCCN)NC(=O)[C@H](Cc1c[nH]c2ccccc12)NC(=O)[C@@H](N)CCCCN)NC(=O)[C@H](Cc1c[nH]c2ccccc12)NC(=O)[C@H](CCCCN)NC(=O)[C@H](CCCCNC(=O)[C@H](Cc1c[nH]c2ccccc12)NC(=O)[C@@H](N)CCCCN)NC(=O)[C@H](Cc1c[nH]c2ccccc12)NC(=O)[C@@H](N)CCCCN)NC(=O)[C@H](Cc1c[nH]c2ccccc12)NC(=O)[C@H](CCCCN)NC(=O)[C@H](CCCCNC(=O)[C@H](Cc1c[nH]c2ccccc12)NC(=O)[C@H](CCCCN)NC(=O)[C@H](CCCCNC(=O)[C@H](Cc1c[nH]c2ccccc12)NC(=O)[C@@H](N)CCCCN)NC(=O)[C@H](Cc1c[nH]c2ccccc12)NC(=O)[C@@H](N)CCCCN)NC(=O)[C@H](Cc1c[nH]c2ccccc12)NC(=O)[C@H](CCCCN)NC(=O)[C@H](CCCCNC(=O)[C@H](Cc1c[nH]c2ccccc12)NC(=O)[C@@H](N)CCCCN)NC(=O)[C@H](Cc1c[nH]c2ccccc12)NC(=O)[C@@H](N)CCCCN)C(=O)N[C@@H](Cc1c[nH]c2ccccc12)C(N)=O [MSt-172, (KW)8(KKW)4(KKW)2(KKW)] (I: H-KWK([Trp-Lys])KWKKWKKW-NH2 / II: H-KWK([Trp-Lys])KWKKW / III: H-KWK([Trp-Lys])KW / IV: H-KWK([Trp-Lys])KW; amide I:6-IV:C, I:9-II:C, II:6-III:C; N-terminus assumed)"
